Measured values: BindingDB's records for patent US20250313563 (The Broad Institute, 2025)
“And” between values parts separate entries of the source, which are not always exact repeats. Equal values may be shown once.

Columns and labels:
[1] = target: Glycogen synthase kinase-3 beta (Homo sapiens, UniProt P49841); experiment: TR-FRET Assay
How it was run: (§1)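 30 min preinc w/ cpd in assay buffer → kinase rxn → EDTA quench → add detection mix (40 nM SA-d2, 2 nM Tb-pSer641 Ab) → TR-FRET read.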

[2] = target: Glycogen synthase kinase-3 alpha (Homo sapiens, UniProt P49840); experiment: TR-FRET Assay
Glycogen synthase kinase-3 alpha, sequence (P49840 whole entry): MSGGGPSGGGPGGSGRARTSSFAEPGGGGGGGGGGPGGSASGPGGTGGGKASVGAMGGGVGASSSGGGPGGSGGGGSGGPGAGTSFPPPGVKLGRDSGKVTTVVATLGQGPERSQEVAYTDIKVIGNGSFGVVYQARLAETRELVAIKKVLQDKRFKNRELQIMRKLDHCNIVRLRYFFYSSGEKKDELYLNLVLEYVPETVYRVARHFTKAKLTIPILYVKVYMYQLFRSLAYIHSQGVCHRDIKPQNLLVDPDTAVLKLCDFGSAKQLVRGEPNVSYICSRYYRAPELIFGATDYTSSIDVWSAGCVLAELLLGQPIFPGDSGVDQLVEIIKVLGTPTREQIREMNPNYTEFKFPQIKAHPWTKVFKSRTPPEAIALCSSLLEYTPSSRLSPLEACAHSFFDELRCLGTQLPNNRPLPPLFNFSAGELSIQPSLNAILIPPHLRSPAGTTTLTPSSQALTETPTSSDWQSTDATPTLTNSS
How it was run: as §1

Glycogen synthase kinase-3 beta, sequence (P49841 whole entry): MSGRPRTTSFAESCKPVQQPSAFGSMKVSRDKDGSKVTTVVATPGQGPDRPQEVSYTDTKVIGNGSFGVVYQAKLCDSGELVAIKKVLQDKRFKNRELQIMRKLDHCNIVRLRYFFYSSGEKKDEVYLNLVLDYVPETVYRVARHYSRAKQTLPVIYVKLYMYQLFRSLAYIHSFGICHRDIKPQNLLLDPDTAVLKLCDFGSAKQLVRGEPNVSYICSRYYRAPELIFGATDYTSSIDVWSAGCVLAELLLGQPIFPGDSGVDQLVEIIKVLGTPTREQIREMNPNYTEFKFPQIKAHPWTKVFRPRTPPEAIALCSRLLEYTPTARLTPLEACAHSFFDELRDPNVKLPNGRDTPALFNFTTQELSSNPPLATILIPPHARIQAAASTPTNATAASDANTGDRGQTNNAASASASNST

| SMILES | IC50 [1] | IC50 [2] |
| --- | --- | --- |
| CC[C@@]1(c2cccc(-c3c(C)ccc4c(C)cccc34)c2)C2=C(CC(C)(C)NC2=O)NC2N=NC(F)=C21 (stereo partly specified) [US20250313563, Compound 949392] | > 5000 nM | 1000 to 5000 nM |
| CCC1(c2cccc(N(C)c3ncccn3)c2)C2=C(CC(C)(C)NC2=O)NC2N=NC(F)=C21 (stereo unspecified) [US20250313563, Compound 949172] | < 100 nM and 1000 to 5000 nM | < 100 nM and 100 to 1000 nM |
| CC[C@]1(c2cccc(-c3ccnc4c3cnn4C)c2)C2=CN=NC2NC2=C1C(=O)NC(C)(C)C2 (stereo partly specified) [US20250313563, Compound 948817] | > 5000 nM | > 5000 nM |
| CC[C@]1(c2cccc(-c3ccnc(C)c3)c2)C2=CN=NC2NC2=C1C(=O)[C@@H]1CC[C@H]2C1 (stereo partly specified) [US20250313563, Compound 943921] | > 5000 nM | 1000 to 5000 nM |
| O=C1CCCC2=C1C1(CCOCC1)C1=C(N=NC1)N2 [US20250313563, Compound 884111] | > 5000 nM | 1000 to 5000 nM |
| CC[C@]1(c2cccc(-c3cc(C)ncc3F)c2)C2=C(CC(C)(C)NC2=O)NC2N=NC(C(F)(F)F)=C21 (stereo partly specified) [US20250313563, Compound 949644] | 1000 to 5000 nM | 100 to 1000 nM |
| CC(C)(C)CC1=C2C(N=N1)NC1=C(C(=O)CC(C)(C)C1)[C@@]21CCc2cc(F)ccc21 (stereo partly specified) [US20250313563, Compound 782425] | 100 to 1000 nM | 100 to 1000 nM |
| CC[C@]1(c2cccc(C(F)(F)F)c2)C2=CN=NC2NC2=C1C(=O)N(C(C)(C)C)CC2 (stereo partly specified) [US20250313563, Compound 945633] | > 5000 nM | > 5000 nM |
| CC1(C)CC(=O)C2=C(C1)NC1=C(CN=N1)C21CCN(CC(F)F)CC1 [US20250313563, Compound 883962] | 100 to 1000 nM | 100 to 1000 nM |
| CC[C@]1(c2cccc(-c3cnn(-c4cccnc4)c3)c2)C2=CN=NC2NC2=C1C(=O)NC(C)(C)C2 (stereo partly specified) [US20250313563, Compound 949515] | > 5000 nM | > 5000 nM |
| CC[C@@]1(c2cccc(N3CCOCC3)c2)C2=CN=NC2NC2=C1C(=O)CC(C)(C)C2 (stereo partly specified) [US20250313563, Compound 810363] | 100 to 1000 nM | 100 to 1000 nM |
| CC[C@@]1(c2cccc([C@H](C)c3ncccn3)c2)C2=CN=NC2NC2=C1C(=O)CC(C)(C)C2 (stereo partly specified) [US20250313563, Compound 948060] | < 100 nM and 1000 to 5000 nM | < 100 nM and 100 to 1000 nM |
| CC[C@@]1(c2cccc(OC)c2)C2=C(CC(C)(C)NC2=O)NC2N=NC(C)=C21 (stereo partly specified) [US20250313563, Compound 949337] | 1000 to 5000 nM | 100 to 1000 nM |
| CC(C)S(=O)(=O)N1CCC2(CC1)C1=C(N=NC1)NC1=C2C(=O)CC(C)(C)[C@@H]1F [US20250313563, Compound 951714] | < 100 nM and 100 to 1000 nM | < 100 nM and 100 to 1000 nM |
| CC[C@@]1(c2cccc(-c3cc(C)nn3C)c2)C2=CN=NC2NC2=C1C(=O)NC(C)(C)C2 (stereo partly specified) [US20250313563, Compound 943967] | > 5000 nM | > 5000 nM |
| COc1cncc(F)c1-c1cccc([C@]2(C)C3=C(CC(C)(C)CC3=O)NC3=C2C(CC(C)(C)C)N=N3)c1 (stereo partly specified) [US20250313563, Compound 108954] | 100 to 1000 nM | 1000 to 5000 nM |
| CC[C@]1(c2cccc(N3CCCC3)c2)C2=CN=NC2NC2=C1C(=O)CC(C)(C)C2 (stereo partly specified) [US20250313563, Compound 810509] | > 5000 nM | > 5000 nM |
| CC[C@]1(c2cccc(C3=C4CC=C(C)N=C4N=CC3)c2)C2=CN=NC2NC2=C1C(=O)NC(C)(C)C2 (stereo partly specified) [US20250313563, Compound 948151] | > 5000 nM | 100 to 1000 nM |
| CC[C@@]1(c2cccc(-c3ccnc4c3CCC4)c2)C2=C(CC(C)(C)NC2=O)NC2N=NC(C(F)(F)F)=C21 (stereo partly specified) [US20250313563, Compound 948778] | < 100 nM and 1000 to 5000 nM | < 100 nM and 100 to 1000 nM |
| CC1(C)CC(=O)C2=C(C1)NC1=C(CN=N1)C21CCN(S(=O)(=O)c2cccnc2)CC1 [US20250313563, Compound 947613] | < 100 nM and 1000 to 5000 nM | < 100 nM and 100 to 1000 nM |
| CC[C@@]1(c2cccc(C(F)(F)F)c2)C2=C(N=NC2)NC2=C1C(=O)N[C@@H]2C [US20250313563, Compound 945380] | > 5000 nM | > 5000 nM |

The next lines start with the values.

| IC50 [1] | IC50 [2] | SMILES |
| --- | --- | --- |
| < 100 nM and 100 to 1000 nM | < 100 nM | CC1(C)CC(=O)C2=C(C1)NC1=C(CN=N1)C21CCN(S(=O)(=O)c2cccc(C(F)F)c2)CC1 [US20250313563, Compound 947264] |
| < 100 nM and 100 to 1000 nM | < 100 nM | CC[C@]1(c2cccc(-c3c(C)nn(C)c3C)c2)C2=C(CC(C)(C)CC2=O)NC2N=NC(C)=C21 (stereo partly specified) [US20250313563, Compound 913043] |
| 100 to 1000 nM | < 100 nM | CCC1(c2cccc(-c3cnn4c3CCCC4)c2)C2=C(CC(C)(C)NC2=O)NC2N=NC(C)=C21 (stereo unspecified) [US20250313563, Compound 945993] |
| 1000 to 5000 nM | 100 to 1000 nM | CC[C@]1(c2cccc(C(F)(F)F)c2)C2=CN=NC2NC2=C1C(=O)N(Cc1ccccc1)CC2 (stereo partly specified) [US20250313563, Compound 912005] |
| < 100 nM | < 100 nM | CCC1(c2cccc(S(=O)(=O)C(C)C)c2)C2=CN=NC2NC2=C1C(=O)CC(C)(C)C2 (stereo unspecified) [US20250313563, Compound 912169] |
| < 100 nM | < 100 nM | CC1(C)CC(=O)C2=C(C1)NC1=C(CN=N1)C21CCN(S(=O)(=O)c2ccccc2Cl)CC1 [US20250313563, Compound 945655] |
| 100 to 1000 nM | < 100 nM | CC[C@@]1(c2cccc(C(F)(F)F)c2)C2=C(CCN(c3ccc(OC)cc3)C2=O)NC2N=NC(C)=C21 (stereo partly specified) [US20250313563, Compound 948226] |
| < 100 nM and 100 to 1000 nM | < 100 nM | CC[C@]1(c2cccc(C(F)(F)F)c2)C2=C(NC3=NN=CC31)c1ccccc1C2=O (stereo partly specified) [US20250313563, Compound 949743] |
| 100 to 1000 nM | < 100 nM | CCC1(c2cccc(C(F)(F)F)c2)C2=C(N=NC2)NC2=C1C(=O)N(Cc1ccccc1)C2 (stereo unspecified) [US20250313563, Compound 917159] |
| 100 to 1000 nM | < 100 nM | CC1(C)CC(=O)C2=C(C1)NC1=C(CN=N1)C21COC2(CN(C(=O)C3CCCCC3)C2)C1 (stereo unspecified) [US20250313563, Compound 947291] |
| < 100 nM | < 100 nM | CCC1(c2cccc(-c3cc(C)ncc3C)c2)C2=C(CC(C)(C)CC2=O)NC2N=NC(C(F)(F)F)=C21 (stereo unspecified) [US20250313563, Compound 945530] |
| 100 to 1000 nM | < 100 nM | CC[C@@]1(c2cccc(N3CCCCC3)c2)C2=CN=NC2NC2=C1C(=O)CC(C)(C)C2 (stereo partly specified) [US20250313563, Compound 810369] |
| < 100 nM | < 100 nM | CCC1(c2cccc(-c3cn(C)nc3C)c2)C2=C(CC(C)(C)NC2=O)NC2N=NC(C(F)F)=C21 (stereo unspecified) [US20250313563, Compound 949170] |
| < 100 nM | < 100 nM | CC1(C)CC(=O)C2=C(C1)NC1=C(CN=N1)C21CCN(S(=O)(=O)c2cccc(F)c2)CC1 [US20250313563, Compound 901466] |
| 100 to 1000 nM | < 100 nM | CCC1(c2cccc(Br)c2)C2=CN=NC2NC2=C1C(=O)NC(C)(C)C2 (stereo unspecified) [US20250313563, Compound 913439] |
| < 100 nM | < 100 nM | C[C@H]1C[C@@H]2C[C@@]3(C[C@@H]2C1)C1=CN=NC1NC1=C3C(=O)CC(C)(C)C1 (stereo partly specified) [US20250313563, Compound 943896] |
| < 100 nM | < 100 nM | CCC1(c2cccc(S(=O)(=O)C3CC3)c2)C2=CN=NC2NC2=C1C(=O)NC(C)(C)C2 (stereo unspecified) [US20250313563, Compound 945465] |
